From PubChem BioAssay (NCI) come the findings set out here.

Test systems include SW-620 colon; RPMI-8226 leukemia; NCI-H226 lung; TK-10 renal; KM20L2 colon; MOLT-4 leukemia; OVCAR-4 ovarian; MALME-3M melanoma; T-47D breast.
What all share (assay): DTP human tumour cell line panel, 48 h

The structures appear in SMILES notation.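 Values below derive from 48-hour exposures of cells grown in 96-well plates, with endpoints linearly interpolated between the two concentrations bracketing the appropriate inhibition level. GI50: concentration for 50% inhibition of growth. TGI: concentration producing complete growth inhibition.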

Usually TGI stands for the concentration at which net growth stops. `CC(C)(C)c1nc2c(o1)C(=Nc1ccccc1)c1ccccc1C2=O`: the TGI is 18.4 µM in the assay on SW-620 colon; 50 µM in the assay on RPMI-8226 leukemia; 23.5 µM with NCI-H226 lung; 59.6 µM with TK-10 renal; 85.8 µM in the assay on KM20L2 colon; more than 100 µM in the assay with MOLT-4 leukemia. In addition, the TGI in the assay with OVCAR-4 ovarian turned out to be 10.2 µM; with MALME-3M melanoma, 3.01 µM.
The term GI50 denotes the concentration giving 50% growth inhibition. As for `OCC(O)CC[CH2][Sn]([c]1ccccc1)([c]1ccccc1)[c]1ccccc1` (stereo not given), the GI50 with SW-620 colon was 13.2 µM; in the assay with RPMI-8226 leukemia, 14.4 µM; in the assay on NCI-H226 lung it was 19 µM; in the assay with TK-10 renal, 17 µM; with KM20L2 colon, 19.4 µM; with OVCAR-4 ovarian, 16.5 µM. Also, the TGI in the assay with SW-620 colon is 26.9 µM; with RPMI-8226 leukemia, 47.5 µM; with NCI-H226 lung it was 70.8 µM; in the assay with TK-10 renal it was 31.2 µM; in the assay with KM20L2 colon, 34.7 µM; in the assay with OVCAR-4 ovarian, 32.2 µM.
Consider `COc1ccccc1-c1cc2c3c(nc4ccccc42)C(=O)c2cccnc2-c3n1`, for which the GI50 was 9.58 µM in the assay on SW-620 colon; 34.6 µM with RPMI-8226 leukemia; 15.3 µM in the assay with NCI-H226 lung; 14.8 µM in the assay with TK-10 renal; 9.08 µM with T-47D breast; more than 42.6 µM in the assay with MOLT-4 leukemia. Further, the GI50 was 13.5 µM in the assay on OVCAR-4 ovarian and 15.4 µM with MALME-3M melanoma. Also, the TGI was 27.3 µM in the assay with SW-620 colon; more than 100 µM in the assay with RPMI-8226 leukemia; 33 µM with NCI-H226 lung; 29.6 µM in the assay with TK-10 renal; more than 94.6 µM in the assay on T-47D breast; more than 100 µM in the assay on MOLT-4 leukemia. Further, the results for the TGI in the assay with OVCAR-4 ovarian and in the assay on MALME-3M melanoma were 38.7 µM and 28.7 µM, respectively.
For the molecule `CCCC[C@@H]1NC(=O)[C@H](CCCCN)NC(=O)[C@H](CCCNC(=N)N)NC(=O)[C@H](CC(C)C)NC(=O)[C@@H](NC(=O)[C@H](Cc2cccc(Cl)c2)NC(=O)[C@@H]2CCCN2C(=O)[C@@H](NC(C)=O)C(C)C)CCSSC[C@@H](C(=O)N[C@@H](CCCCN)C(=O)N2CCC[C@H]2C(=O)N2CCC[C@H]2C(=O)N[C@@H](CCC(=O)O)C(N)=O)NC(=O)[C@H](Cc2ccccc2)NC(=O)[C@H](CO)NC(=O)[C@H](C)NC(=O)[C@@H]2CCCN2C1=O`, the GI50 with SW-620 colon, in the assay with RPMI-8226 leukemia, in the assay on NCI-H226 lung, in the assay on TK-10 renal, in the assay on T-47D breast and in the assay with MOLT-4 leukemia was more than 50 µM throughout. Further, the GI50 with OVCAR-4 ovarian and in the assay on MALME-3M melanoma was more than 50 µM each time. The TGI with SW-620 colon, in the assay with RPMI-8226 leukemia, with NCI-H226 lung, in the assay on TK-10 renal, with T-47D breast and in the assay with MOLT-4 leukemia was more than 50 µM in each case. In addition, the TGI in the assay with OVCAR-4 ovarian and in the assay on MALME-3M melanoma was more than 50 µM each time.
`O=C1C=C(SCCO)C(=O)c2ccccc21`: the GI50 with SW-620 colon was 1.85 µM; in the assay on RPMI-8226 leukemia, 2.09 µM; with NCI-H226 lung, 16.3 µM; in the assay with TK-10 renal, 2.75 µM; in the assay with T-47D breast, 1.47 µM; in the assay with MOLT-4 leukemia, 1.26 µM. Moreover, the GI50 with OVCAR-4 ovarian is 1.42 µM; in the assay with MALME-3M melanoma, 1.81 µM. The TGI in the assay with SW-620 colon is 3.73 µM; with RPMI-8226 leukemia it was 5 µM; with NCI-H226 lung, 36.6 µM; in the assay with TK-10 renal it was 6.2 µM; in the assay on T-47D breast it was 4.1 µM; in the assay on MOLT-4 leukemia, 4.51 µM. Moreover, the TGI with OVCAR-4 ovarian worked out at 2.75 µM; in the assay with MALME-3M melanoma, 3.29 µM.
Consider `COc1cc(OC)c(-c2cc(=O)c3c(OC)c(OC)c(OC)c(OC)c3o2)cc1OC`, for which the TGI in the assay on SW-620 colon, in the assay on RPMI-8226 leukemia, in the assay with NCI-H226 lung, in the assay on TK-10 renal, with T-47D breast and in the assay on MOLT-4 leukemia was more than 100 µM throughout. Further, the TGI in the assay with OVCAR-4 ovarian and in the assay with MALME-3M melanoma was more than 100 µM throughout.
Consider `Cc1ccc(NS(=O)(=O)c2ccc(-c3cnc(C4CC4)o3)cc2)cc1`, for which the GI50 in the assay with SW-620 colon is 2.25 µM; with RPMI-8226 leukemia, 2.82 µM; with NCI-H226 lung, 7.37 µM; in the assay on TK-10 renal it was 9.96 µM; with T-47D breast, 2.68 µM; in the assay on MOLT-4 leukemia it was 3.22 µM. The GI50 in the assay with OVCAR-4 ovarian is 3.87 µM; in the assay on MALME-3M melanoma it was 2.48 µM. Also, the concentration for total growth inhibition (TGI) with SW-620 colon is 13.2 µM; in the assay with RPMI-8226 leukemia it was 12.6 µM; in the assay on NCI-H226 lung, 24.5 µM; in the assay with TK-10 renal, 22.1 µM; with T-47D breast, 11 µM; in the assay on MOLT-4 leukemia, 20.9 µM. For the same molecule, the total growth inhibition concentration (TGI) with OVCAR-4 ovarian and in the assay on MALME-3M melanoma was 17.6 µM each time.
For `CN(C)c1c(Cl)c(=O)oc2c1ccc1nc(-c3ccccc3)sc12`, the total growth inhibition concentration (TGI) in the assay with SW-620 colon, with RPMI-8226 leukemia, in the assay on NCI-H226 lung, in the assay on TK-10 renal, in the assay on T-47D breast and in the assay with MOLT-4 leukemia was more than 100 µM throughout. The concentration for total growth inhibition (TGI) in the assay on OVCAR-4 ovarian and with MALME-3M melanoma was more than 100 µM throughout.
Consider `c1ccc2c(c1)O[As](O[As]1Oc3ccccc3O1)O2`, for which the GI50 with SW-620 colon is 3.01 µM; with RPMI-8226 leukemia, 1.07 µM; in the assay on NCI-H226 lung it was 3.61 µM; with TK-10 renal, 4.75 µM; with T-47D breast, 1.69 µM; in the assay with MOLT-4 leukemia, 2.45 µM. The GI50 in the assay with OVCAR-4 ovarian was 2.49 µM; in the assay on MALME-3M melanoma, 2.32 µM. In addition, the TGI in the assay on SW-620 colon came to 14.8 µM; in the assay on RPMI-8226 leukemia it was 4.61 µM; in the assay with NCI-H226 lung, 19.7 µM; in the assay with TK-10 renal, 13.3 µM; in the assay with T-47D breast it was 14.6 µM; in the assay on MOLT-4 leukemia, 7.21 µM. For the same molecule, the TGI in the assay on OVCAR-4 ovarian was found to be 19.7 µM; in the assay on MALME-3M melanoma it was 5.21 µM.
On to `O=S(=O)(c1cccc(C(F)(F)F)c1)N1c2ccccc2-n2cccc2C1c1cccnc1` (stereo not given), for which the concentration for total growth inhibition (TGI) is more than 60.4 µM with SW-620 colon; more than 57.7 µM with RPMI-8226 leukemia; more than 53 µM in the assay with NCI-H226 lung; more than 85.1 µM in the assay with TK-10 renal; more than 70.4 µM in the assay on T-47D breast; more than 56.6 µM in the assay on MOLT-4 leukemia. Further, the figures for the TGI in the assay on OVCAR-4 ovarian and with MALME-3M melanoma were more than 48.4 µM and more than 54.5 µM, respectively.
Regarding `O=C(c1ccccc1)c1ccc(-c2ccc(O)cc2)cc1`, the GI50 is 5.23 µM in the assay on SW-620 colon; 2.7 µM with RPMI-8226 leukemia; 16.8 µM in the assay on NCI-H226 lung; 8.43 µM with TK-10 renal; 3.75 µM in the assay on T-47D breast; 4.28 µM in the assay with MOLT-4 leukemia. The GI50 in the assay with OVCAR-4 ovarian was 5.87 µM; in the assay on MALME-3M melanoma, 0.803 µM. For the same molecule, the TGI was more than 100 µM in the assay with SW-620 colon; 18.3 µM in the assay on RPMI-8226 leukemia; more than 73.7 µM with NCI-H226 lung; 50.7 µM in the assay with TK-10 renal; 35.6 µM in the assay on T-47D breast; 33.4 µM in the assay with MOLT-4 leukemia. For the same molecule, the results for the TGI with OVCAR-4 ovarian and in the assay with MALME-3M melanoma were more than 100 µM and 34.9 µM, respectively.
